The subject of series [1] is Staphylococcus aureus Methicillin/Gentamicin/Tetracycline Resistant (ATCC 33592). The following applies: in vitro MIC; tested at 100, 30, 10, 3, 1, 0.3 and 0.1 μM in 1% DMSO.
In series [2] the test system is Mycobacterium ranae (ATCC 110). The settings on record: ATCC 110.
The next series relates to F. tularensis SCHU-S4. The following applies: in vitro MIC.
The subject of a further series is Bacillus anthracis Ames. The following applies: in vitro MIC.
Another series concerns B. melitensis 16M. The settings on record: in vitro MIC.
In a further series the test system is Plague CO92. The following applies: in vitro MIC.
The nature of series [3]: in vitro. The following applies: dog, microsomes, pH 7.4.
The nature of series [4]: in vitro. The settings on record: rat, microsomes, pH 7.4.
A short description of series [5]: in vitro. The settings on record: mouse, microsomes, pH 7.4.
Series [6] has as its system Salmonella typhimurium (ATCC 13311). The settings on record: ATCC 13311.
Series [7] concerns Bacillus subtillis (ATCC 43223). The following applies: ATCC 43223.
Series [8] can be described thus: in vitro. The following applies: monkey, microsomes, pH 7.4.
Series [9] is described as follows: in vitro. The following applies: human, microsomes, pH 7.4.

SMILES strings stand for the structures. Converted amounts (≈) assume the structure as drawn. Like-named read-outs stand apart in the source and are kept apart here. Where a SMILES comes first, the peptide text is derived from it. [ ]: non-standard residue; d: D form. ξ: configuration not given here. Oic = O=C(O)[C@@H]1C[C@@H]2CCCC[C@@H]2N1; Tic = O=C(O)[C@@H]1Cc2ccccc2CN1; 2Thi = N[C@@H](Cc1cccs1)C(=O)O; ξTic = O=C(O)C1Cc2ccccc2CN1; ξOic = O=C(O)C1CC2CCCCC2N1; Dab = NCC[C@H](N)C(=O)O; Ahx = NCCCCCC(=O)O; βAla = NCCC(=O)O A value given as a limit tells only on which side of the number the result lay.

Regarding `NCCCC[C@H](NC(=O)[C@H](CCCCN)NC(=O)[C@H](CCCCN)NC(=O)[C@H](CCCCN)NC(=O)C1Cc2ccccc2CN1C(=O)[C@H](CCCCN)NC(=O)CNC(=O)C1CC2CCCCC2N1C(=O)C1Cc2ccccc2CN1C(=O)[C@H](Cc1ccccc1)NC(=O)CNC(=O)C1CC2CCCCC2N1C(=O)C1Cc2ccccc2CN1C(=O)[C@H](CCCCN)NC(=O)CNC(=O)C1CC2CCCCC2N1C(=O)C1Cc2ccccc2CN1C(=O)[C@H](Cc1ccccc1)NC(=O)CNC(=O)[C@@H](N)Cc1cccs1)C(N)=O` (stereo partly drawn) [FKAB-1G-Thi, Thi-GF-Tic-Oic-GK-Tic-Oic-GF-Tic-Oic-GK-Tic-KKKK-CONH2] (H-[2Thi]GF[ξTic][ξOic]GK[ξTic][ξOic]GF[ξTic][ξOic]GK[ξTic]KKKK-NH2), the “Minimum Inhibitory Concentration Staphylococcus aureus ME/GM/TC resistant” value in series [1] turned out to be 10 µM. Also, the “Minimum Inhibitory Concentration Mycobacterium ranae” value in series [2] was determined as 30 µM. For the same compound, the “Minimum Inhibitory Concentration F. tularensis SCHU-S4” value in the series with F. tularensis SCHU-S4 turned out to be 250 µg/mL. The “Minimum Inhibitory Concentration Bacillus anthracis Ames” value in the series with Bacillus anthracis Ames (listed as 56) turned out to be 1.95 µg/mL. The “Minimum Inhibitory Concentration B. melitensis 16M” value with B. melitensis 16M was above 500 µg/mL. In addition, the “Minimum Inhibitory Concentration Plague CO92” value in the series on Plague CO92 (listed as 56) was found to be 15.6 µg/mL. Further, the amount remaining at 0.5 h, 1 μM in “in vitro [3]” worked out at 61%; in the series “in vitro [4]”, 61%; in the series “in vitro [5]”, 67%. The values for the share remaining at 0.25 h, 1 μM in “in vitro [4]” and in “in vitro [5]” were 107% and 41%, respectively.

As for `CC(=O)NCC(=O)N[C@@H](Cc1ccccc1)C(=O)N1Cc2ccccc2CC1C(=O)NCC(=O)N[C@@H](CCCCN)C(=O)N1Cc2ccccc2CC1C(=O)NCC(=O)N[C@@H](Cc1ccccc1)C(=O)N1Cc2ccccc2CC1C(=O)NCC(=O)N[C@@H](CCCCN)C(=O)N1Cc2ccccc2CC1C(=O)N[C@@H](CCCCN)C(=O)N[C@@H](CCCCN)C(=O)N[C@@H](CCCCN)C(=O)N[C@@H](CCCCN)C(N)=O` (stereo partly drawn) [FKAB-1Gg, Ac-GF-Tic-GK-Tic-GF-Tic-GK-Tic-KKKK-CONH2] (Ac-GF[ξTic]GK[ξTic]GF[ξTic]GK[ξTic]KKKK-NH2), the “MIC Salmonella typhimurium” value in series [6] turned out to be 100 µM (≈ 199 µg/mL). Also, in [2], the “MIC Mycobacterium ranae” value amounted to 30.00 µM (≈ 59.6 µg/mL). Also, the “MIC Bacillus Subtillis” value in series [7] was 10.00 µM (≈ 19.9 µg/mL). In the series with red blood cells (100 μM), the “% hemolysis 100/25 μM (first value)” value was found to be 6%. Besides, the “% hemolysis 100/25 μM (second value)” value with red blood cells (25) is on record as 4.9%. Also, the “Minimum Inhibitory Concentration F. tularensis SCHU-S4” value in the series on F. tularensis SCHU-S4 was found to be 250 µg/mL. Besides, the “Minimum Inhibitory Concentration Bacillus anthracis Ames” value with Bacillus anthracis Ames (listed as 34) was 0.98 µg/mL. The “Minimum Inhibitory Concentration B. melitensis 16M” value with B. melitensis 16M is above 500 µg/mL. In addition, the “Minimum Inhibitory Concentration Plague CO92” value in the series with Plague CO92 (listed as 34) was 31.25 µg/mL.

In the case of `CC(=O)NCC(=O)N[C@@H](Cc1ccccc1)C(=O)N1Cc2ccccc2CC1C(=O)N1C(C(=O)NCC(=O)N[C@@H](CCN)C(=O)N2Cc3ccccc3CC2C(=O)N2C(C(=O)NCC(=O)N[C@@H](Cc3ccccc3)C(=O)N3Cc4ccccc4CC3C(=O)N3C(C(=O)NCC(=O)N[C@@H](CCN)C(=O)N4Cc5ccccc5CC4C(=O)N[C@@H](CCN)C(=O)N[C@@H](CCN)C(=O)N[C@@H](CCN)C(=O)N[C@@H](CCN)C(N)=O)CC4CCCCC43)CC3CCCCC32)CC2CCCCC21` (stereo partly drawn) [FKAB-1Gz, Ac-GF-Tic-Oic-G-Dab-Tic-Oic-GF-Tic-Oic-G-Dab-Tic-Dab-Dab-Dab-Dab-CONH2] (Ac-GF[ξTic][ξOic]G[Dab][ξTic][ξOic]GF[ξTic][ξOic]G[Dab][ξTic][Dab][Dab][Dab][Dab]-NH2), in series [1], the “Minimum Inhibitory Concentration Staphylococcus aureus ME/GM/TC resistant” value came to 10 µM. In series [2], the “Minimum Inhibitory Concentration Mycobacterium ranae” value worked out at 10 µM. Further, the “Minimum Inhibitory Concentration F. tularensis SCHU-S4” value with F. tularensis SCHU-S4 is 125 µg/mL. In the series with Bacillus anthracis Ames (listed as 55), the “Minimum Inhibitory Concentration Bacillus anthracis Ames” value turned out to be 0.98 µg/mL. The “Minimum Inhibitory Concentration B. melitensis 16M” value in the series on B. melitensis 16M was above 500 µg/mL. The “Minimum Inhibitory Concentration Plague CO92” value with Plague CO92 (listed as 55) was found to be 15.6 µg/mL. The fraction remaining at 0.5 h, 1 μM in “in vitro [8]” is 119%; in “in vitro [4]”, 7%; in the series “in vitro [5]” it was 29%. The values for the share remaining at 1 h, 1 μM in “in vitro [3]”, in the series “in vitro [4]” and in the series “in vitro [5]” were 3%, 80% and 42%, respectively. For the same compound, the figures for the fraction remaining at 0.25 h, 1 μM in “in vitro [4]” and in “in vitro [5]” were 21% and 74%, respectively.

Take `CC(=O)NCC(=O)N[C@@H](Cc1ccccc1)C(=O)N1Cc2ccccc2C[C@H]1C(=O)N1[C@H](C(=O)NCC(=O)N[C@@H](CCCCN)C(=O)N2Cc3ccccc3C[C@H]2C(=O)N2[C@H](C(=O)NCC(=O)N[C@@H](Cc3ccccc3)C(=O)N3Cc4ccccc4C[C@H]3C(=O)N3[C@H](C(=O)NCC(=O)N[C@@H](CCCCN)C(=O)N4Cc5ccccc5C[C@H]4C(=O)NCCC(=O)N[C@@H](CCCCN)C(=O)N[C@@H](CCCCN)C(=O)N[C@@H](CCCCN)C(=O)N[C@@H](CCCCN)C(N)=O)C[C@@H]4CCCC[C@@H]43)C[C@@H]3CCCC[C@@H]32)C[C@@H]2CCCC[C@@H]21` [FKAB-1G-βA, Ac-GF-Tic-Oic-GK-Tic-Oic-GF-Tic-Oic-GK-Tic-βAla-KKKK-CONH2] (Ac-GF[Tic][Oic]GK[Tic][Oic]GF[Tic][Oic]GK[Tic][βAla]KKKK-NH2): the “Minimum Inhibitory Concentration Staphylococcus aureus ME/GM/TC resistant” value in series [1] was 30 µM. Further, the “Minimum Inhibitory Concentration Mycobacterium ranae” value in series [2] was 10 µM. Further, in the series on F. tularensis SCHU-S4, the “Minimum Inhibitory Concentration F. tularensis SCHU-S4” value came to 250 µg/mL. In addition, the “Minimum Inhibitory Concentration Bacillus anthracis Ames” value in the series with Bacillus anthracis Ames (listed as 52) came to 1.95 µg/mL. The “Minimum Inhibitory Concentration B. melitensis 16M” value in the series on B. melitensis 16M is above 500 µg/mL. Also, the “Minimum Inhibitory Concentration Plague CO92” value with Plague CO92 (listed as 52) turned out to be 31.25 µg/mL. Further, in “in vitro [3]”, the amount remaining at 0.5 h, 1 μM was 66%. Moreover, the values for the share remaining at 1 h, 1 μM in the series “in vitro [3]” and in “in vitro [4]” were 105% and 44%, respectively. Also, the results for the amount remaining at 0.25 h, 1 μM in “in vitro [4]” and in “in vitro [5]” were 118% and 11%, respectively.

With `CC(=O)NCC(=O)N[C@@H](Cc1ccccc1)C(=O)N1Cc2ccccc2CC1C(=O)N1C(C(=O)NCC(=O)N[C@@H](Cc2c[nH]c3ccccc23)C(=O)N2Cc3ccccc3CC2C(=O)N2C(C(=O)NCC(=O)N[C@@H](Cc3ccccc3)C(=O)N3Cc4ccccc4CC3C(=O)N3C(C(=O)NCC(=O)N[C@@H](Cc4c[nH]c5ccccc45)C(=O)N4Cc5ccccc5CC4C(=O)N[C@@H](CCCCN)C(=O)N[C@@H](CCCCN)C(=O)N[C@@H](CCCCN)C(=O)N[C@@H](CCCCN)C(N)=O)CC4CCCCC43)CC3CCCCC32)CC2CCCCC21` (stereo partly drawn) [FKAB-1G-Trp, Ac-GF-Tic-Oic-GW-Tic-Oic-GF-Tic-Oic-GW-Tic-KKKK-CONH2] (Ac-GF[ξTic][ξOic]GW[ξTic][ξOic]GF[ξTic][ξOic]GW[ξTic]KKKK-NH2), in series [1], the “Minimum Inhibitory Concentration Staphylococcus aureus ME/GM/TC resistant” value was determined as 30 µM. For the same compound, the “Minimum Inhibitory Concentration Mycobacterium ranae” value in series [2] was determined as 100 µM. The “Minimum Inhibitory Concentration F. tularensis SCHU-S4” value in the series with F. tularensis SCHU-S4 was above 500 µg/mL. For the same compound, the “Minimum Inhibitory Concentration Bacillus anthracis Ames” value in the series with Bacillus anthracis Ames (listed as 57) was determined as 0.98 µg/mL. Also, in the series on B. melitensis 16M, the “Minimum Inhibitory Concentration B. melitensis 16M” value was above 500 µg/mL. Besides, the “Minimum Inhibitory Concentration Plague CO92” value with Plague CO92 (listed as 57) is above 500 µg/mL. In addition, the figures for the amount remaining at 0.25 h, 1 μM in “in vitro [9]”, in the series “in vitro [8]” and in “in vitro [5]” were 112%, 0% and 54%, respectively. Besides, the amount remaining at 0.5 h, 1 μM stood at 0% in the series “in vitro [8]”, 116% in “in vitro [3]”, 84% in the series “in vitro [4]” and 81% in the series “in vitro [5]”. Besides, the share remaining at 1 h, 1 μM in “in vitro [8]” stood at 0%; in “in vitro [4]”, 0%; in “in vitro [5]” it was 106%.

With `CC(=O)NCC(=O)N[C@@H](Cc1ccccc1)C(=O)N1Cc2ccccc2CC1C(=O)N1C(C(=O)NCC(=O)N[C@@H](CCCCN)C(=O)N2Cc3ccccc3CC2C(=O)N2C(C(=O)NCC(=O)N[C@@H](Cc3ccccc3)C(=O)N3Cc4ccccc4CC3C(=O)N3C(C(=O)NCC(=O)N[C@@H](CCCCN)C(=O)N4Cc5ccccc5CC4C(=O)NCCCCCC(=O)N[C@@H](CCCCN)C(=O)N[C@@H](CCCCN)C(=O)N[C@@H](CCCCN)C(=O)N[C@@H](CCCCN)C(N)=O)CC4CCCCC43)CC3CCCCC32)CC2CCCCC21` (stereo partly drawn) [FKAB-1G-Ahx, Ac-GF-Tic-Oic-GK-Tic-Oic-GF-Tic-Oic-GK-Tic-Ahx-KKKK-CONH2] (Ac-GF[ξTic][ξOic]GK[ξTic][ξOic]GF[ξTic][ξOic]GK[ξTic][Ahx]KKKK-NH2), the “Minimum Inhibitory Concentration Staphylococcus aureus ME/GM/TC resistant” value in series [1] is 30 µM. For the same compound, in [2], the “Minimum Inhibitory Concentration Mycobacterium ranae” value amounted to 10 µM. Further, in the series with F. tularensis SCHU-S4, the “Minimum Inhibitory Concentration F. tularensis SCHU-S4” value was 250 µg/mL. Moreover, the “Minimum Inhibitory Concentration Bacillus anthracis Ames” value with Bacillus anthracis Ames (listed as 54) was 1.95 µg/mL. In addition, the “Minimum Inhibitory Concentration B. melitensis 16M” value in the series on B. melitensis 16M was above 500 µg/mL. In the series with Plague CO92 (listed as 54), the “Minimum Inhibitory Concentration Plague CO92” value worked out at 15.6 µg/mL. Besides, the share remaining at 0.25 h, 1 μM in the series “in vitro [9]” is 112%; in the series “in vitro [4]” it was 120%; in the series “in vitro [5]” it was 97%. Further, the results for the fraction remaining at 0.5 h, 1 μM in the series “in vitro [3]”, in “in vitro [4]” and in the series “in vitro [5]” were 79%, 106% and 98%, respectively. Moreover, the figures for the fraction remaining at 1 h, 1 μM in the series “in vitro [3]” and in “in vitro [5]” were 84% and 113%, respectively.

These data come from patent US20120197004A1, “NOVEL ANTI-MICROBIAL PEPTIDOMIMETIC COMPOUNDS AND METHODS TO CALCULATE ANTI-MICROBIAL ACTIVITY” (priority 2006, published 2012).
